Results: ChEMBL document CHEMBL1201862, “PubChem BioAssay data set” (2004)
One block for each molecule: values may come before it. Active and inactive are the calls of the source. For most assays here, no stated cut-off is given here; in the data, actives have a measured IC50 and inactives only a lower limit.

Legend:
[1] = target: T1, Tyrosine-protein phosphatase non-receptor type 7 (Homo sapiens, UniProt P35236); experiment: HePTP (PTPN7) phosphatase inhibitor potency, SAR follow-up, biochemical, set 2 (AID 449736); assay type: functional
T1 sequence (P35236 whole entry): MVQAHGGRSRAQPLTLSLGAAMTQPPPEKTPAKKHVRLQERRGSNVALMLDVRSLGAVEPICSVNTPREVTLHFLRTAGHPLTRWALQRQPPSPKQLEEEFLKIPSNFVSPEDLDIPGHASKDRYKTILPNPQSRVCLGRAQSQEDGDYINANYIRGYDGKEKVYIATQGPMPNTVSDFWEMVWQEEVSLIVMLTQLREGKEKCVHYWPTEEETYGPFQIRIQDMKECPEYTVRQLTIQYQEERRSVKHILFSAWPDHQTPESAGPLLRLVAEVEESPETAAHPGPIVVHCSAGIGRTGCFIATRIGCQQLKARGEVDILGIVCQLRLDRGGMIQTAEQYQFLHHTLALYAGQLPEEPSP

Hexokinase-1 = target: T2, Hexokinase-1 (Homo sapiens, UniProt P19367); experiment: hexokinase 1 activators, dose response, selectivity assay for HKDC1 activator project, biochemical (AID 504762); assay type: functional
T2 sequence (P19367 whole entry): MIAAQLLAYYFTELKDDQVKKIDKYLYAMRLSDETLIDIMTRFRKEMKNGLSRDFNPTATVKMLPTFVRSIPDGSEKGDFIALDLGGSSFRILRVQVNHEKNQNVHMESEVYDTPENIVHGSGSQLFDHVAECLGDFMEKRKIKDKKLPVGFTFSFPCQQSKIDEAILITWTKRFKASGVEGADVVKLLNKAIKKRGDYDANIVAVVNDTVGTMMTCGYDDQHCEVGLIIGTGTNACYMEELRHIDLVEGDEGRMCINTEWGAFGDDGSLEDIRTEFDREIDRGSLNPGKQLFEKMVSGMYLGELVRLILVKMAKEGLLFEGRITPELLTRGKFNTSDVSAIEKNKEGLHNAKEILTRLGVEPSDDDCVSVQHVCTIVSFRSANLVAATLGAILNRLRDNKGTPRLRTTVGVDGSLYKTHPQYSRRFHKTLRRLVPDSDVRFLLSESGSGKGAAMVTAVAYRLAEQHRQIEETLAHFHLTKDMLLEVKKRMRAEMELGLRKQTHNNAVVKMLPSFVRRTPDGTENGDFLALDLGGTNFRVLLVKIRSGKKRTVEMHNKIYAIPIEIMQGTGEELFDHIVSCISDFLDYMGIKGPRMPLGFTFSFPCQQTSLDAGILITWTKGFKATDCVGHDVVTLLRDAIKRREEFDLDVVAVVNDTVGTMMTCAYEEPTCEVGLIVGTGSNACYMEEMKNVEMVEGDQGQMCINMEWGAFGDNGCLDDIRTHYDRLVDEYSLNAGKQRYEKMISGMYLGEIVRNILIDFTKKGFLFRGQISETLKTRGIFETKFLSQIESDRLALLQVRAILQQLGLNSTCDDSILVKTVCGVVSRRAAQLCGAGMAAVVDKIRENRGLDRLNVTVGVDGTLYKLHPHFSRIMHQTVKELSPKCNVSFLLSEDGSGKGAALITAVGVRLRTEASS

Hexokinase HKDC1 = target: T3, Hexokinase HKDC1 (Homo sapiens, UniProt Q2TB90); experiment: HKDC1 hexokinase activators, dose response, biochemical, W721R variant (AID 504730); assay type: functional
T3 sequence (Q2TB90 whole entry): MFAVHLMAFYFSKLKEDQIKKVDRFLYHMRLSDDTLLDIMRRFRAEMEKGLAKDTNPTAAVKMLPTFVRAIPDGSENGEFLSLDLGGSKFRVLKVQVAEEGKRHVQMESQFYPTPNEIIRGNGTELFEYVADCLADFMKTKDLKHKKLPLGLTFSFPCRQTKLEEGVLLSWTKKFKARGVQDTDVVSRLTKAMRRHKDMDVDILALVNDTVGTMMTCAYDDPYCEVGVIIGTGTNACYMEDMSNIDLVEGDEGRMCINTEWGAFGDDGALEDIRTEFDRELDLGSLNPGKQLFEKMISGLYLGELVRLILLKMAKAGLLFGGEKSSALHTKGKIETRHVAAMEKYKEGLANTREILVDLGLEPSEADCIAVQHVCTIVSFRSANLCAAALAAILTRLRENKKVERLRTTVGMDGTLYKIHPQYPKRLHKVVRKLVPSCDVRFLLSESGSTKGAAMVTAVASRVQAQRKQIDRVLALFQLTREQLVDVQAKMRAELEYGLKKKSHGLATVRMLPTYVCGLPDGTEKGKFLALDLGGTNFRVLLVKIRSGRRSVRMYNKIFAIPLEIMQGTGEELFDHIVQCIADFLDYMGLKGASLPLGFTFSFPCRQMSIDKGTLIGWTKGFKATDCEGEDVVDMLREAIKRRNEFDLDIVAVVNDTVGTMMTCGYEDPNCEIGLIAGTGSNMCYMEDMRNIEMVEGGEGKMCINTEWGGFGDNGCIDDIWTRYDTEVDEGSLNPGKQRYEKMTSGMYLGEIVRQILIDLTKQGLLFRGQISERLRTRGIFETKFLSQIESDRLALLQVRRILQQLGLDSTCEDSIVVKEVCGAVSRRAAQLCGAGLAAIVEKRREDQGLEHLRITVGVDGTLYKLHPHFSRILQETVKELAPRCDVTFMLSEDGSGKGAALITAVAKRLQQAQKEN

Tumor necrosis factor [2] = target: T4, Tumor necrosis factor (Homo sapiens, UniProt P01375); experiment: TNFa-triggered NF-kB activation inhibitors, SAR follow-up, cell-based, revised (AID 2337); assay type: functional
T4 sequence (P01375 whole entry): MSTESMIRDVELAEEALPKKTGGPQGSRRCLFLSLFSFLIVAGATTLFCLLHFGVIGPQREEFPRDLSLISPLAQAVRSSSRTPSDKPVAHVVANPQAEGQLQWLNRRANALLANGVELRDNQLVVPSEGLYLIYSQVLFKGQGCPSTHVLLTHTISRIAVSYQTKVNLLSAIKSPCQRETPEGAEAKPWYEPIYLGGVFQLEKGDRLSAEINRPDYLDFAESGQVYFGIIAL

HEK293 [3] = experiment: NOD2 signaling inhibitors in MDP-stimulated cells, cell-based, uHTS, luminescence (AID 2001); assay type: functional; conditions: Homo sapiens
[4] = target: T5, Nucleotide-binding oligomerization domain-containing protein 2 (Homo sapiens, UniProt Q9HC29); experiment: NOD2 inhibitors, SAR follow-up, set 2 (AID 2475); assay type: functional
T5 sequence (Q9HC29 whole entry, the tested form may be a part): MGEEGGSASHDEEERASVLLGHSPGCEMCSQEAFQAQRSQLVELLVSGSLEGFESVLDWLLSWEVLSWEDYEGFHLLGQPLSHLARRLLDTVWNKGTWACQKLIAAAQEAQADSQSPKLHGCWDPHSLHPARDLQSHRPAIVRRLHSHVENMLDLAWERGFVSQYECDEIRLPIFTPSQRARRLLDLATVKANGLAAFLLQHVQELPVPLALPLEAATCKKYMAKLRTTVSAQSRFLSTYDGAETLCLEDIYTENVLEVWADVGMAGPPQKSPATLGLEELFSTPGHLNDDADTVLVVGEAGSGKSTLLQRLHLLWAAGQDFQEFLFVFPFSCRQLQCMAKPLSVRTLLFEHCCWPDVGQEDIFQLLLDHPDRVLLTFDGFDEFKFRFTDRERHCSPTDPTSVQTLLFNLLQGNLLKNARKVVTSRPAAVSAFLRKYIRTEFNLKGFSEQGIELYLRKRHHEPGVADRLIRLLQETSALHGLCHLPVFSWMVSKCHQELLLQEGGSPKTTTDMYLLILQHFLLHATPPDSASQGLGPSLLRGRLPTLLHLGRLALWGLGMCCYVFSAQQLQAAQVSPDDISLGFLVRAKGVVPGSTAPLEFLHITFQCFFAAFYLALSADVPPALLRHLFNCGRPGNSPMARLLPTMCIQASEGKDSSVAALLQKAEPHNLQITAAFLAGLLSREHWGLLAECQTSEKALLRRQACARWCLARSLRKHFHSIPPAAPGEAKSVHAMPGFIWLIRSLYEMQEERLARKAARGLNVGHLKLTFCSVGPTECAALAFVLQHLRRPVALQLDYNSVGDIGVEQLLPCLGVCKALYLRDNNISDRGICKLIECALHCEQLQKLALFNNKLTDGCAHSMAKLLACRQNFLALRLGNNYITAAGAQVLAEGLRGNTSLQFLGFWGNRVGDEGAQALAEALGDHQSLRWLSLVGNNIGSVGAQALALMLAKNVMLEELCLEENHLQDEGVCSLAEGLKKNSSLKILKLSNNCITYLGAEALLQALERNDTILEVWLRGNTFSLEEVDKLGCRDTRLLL

[5] = target: T5, Nucleotide-binding oligomerization domain-containing protein 2; experiment: PubChem AID 2334; assay type: functional
HEK293 [6] = experiment: cells; assay type: functional, cell-based; conditions: Homo sapiens
[7] = target: T5, Nucleotide-binding oligomerization domain-containing protein 2; experiment: NOD2 signaling inhibitors, analog potency, SAR follow-up, cell-based, set 3 (AID 2799); assay type: functional
Tumor necrosis factor [8] = target: T4, Tumor necrosis factor; experiment: TNFa-triggered NF-kB activation inhibitors, SAR follow-up, cell-based, set 3 (AID 2801); assay type: functional
HEK293 [9] = experiment: cells; assay type: functional, cell-based; conditions: Homo sapiens; remark: listed apart in the source
HEK293 [10] = experiment: SAR analysis of compounds that are cytotoxic to HEK293 - Set 2. [Related pubchem assays (depositor defined):AID1575, AID1578, AID1849, AID2001, AID2333, AID2334, AID2335, AID2337, AID2800]; assay type: functional, cell-based; conditions: Homo sapiens
HEK293 [11] = experiment: SAR analysis of compounds that are cytotoxic to HEK293 - Set 3. [Related pubchem assays (depositor defined):AID1575, AID1578, AID1848, AID1849, AID2001, AID2333, AID2334, AID2335, AID2337, AID2469]; assay type: functional, cell-based; conditions: Homo sapiens
HEK293 [12] = experiment: cells; conditions: Homo sapiens

IC50 [1]: 47.6 µM (active)
SMILES: Cc1ccc(NC(=O)Nc2ccc(S(N)(=O)=O)cc2)cc1

EC50 (Hexokinase-1): 49.3 µM (inactive)
EC50 (Hexokinase HKDC1): 31.8 µM (inactive)
SMILES: Nc1nc(-c2cccc(Br)c2)cs1

SMILES: Cc1ccc(S(=O)(=O)n2c(N)nc3ccccc32)cc1
IC50 (Tumor necrosis factor [2]): > 20 µM (inactive)
IC50 (HEK293 [3]): > 20 µM (inactive)
IC50 [4]: > 20 µM (inactive)
IC50 [5]: > 20 µM (inactive)
IC50 (HEK293 [6]): > 20 µM (inactive)
IC50 [7]: > 20 µM (inactive)
IC50 (Tumor necrosis factor [8]): > 20 µM (inactive)
IC50 (HEK293 [9]): > 20 µM (inactive)
IC50 (HEK293 [10]): > 20 µM (inactive)
IC50 (HEK293 [11]): > 20 µM (inactive)
IC50 (HEK293 [12]): > 20 µM (inactive)
